This assay deals with streptavidin.

Structures are written as SMILES. Where two headings read alike, the source gives them in different places.

Experimental: The fluid channel was at first flown with Tris buffer from syringe A into the device 400 received at the corresponding inlet 411.
The acquired signals were measured from the drain current of the exemplary FET 432. […] This was similarly repeated with 1 mM streptavidin protein in the Tris buffer from syringe B. For example, 20 mM Tris buffer (pH=7.4) was prefilled in the channel and then 1 mM avidin was flowed in the 20 mM Tris buffer in the channel.

For `O=C(O)CCCC[C@@H]1SC[C@@H]2NC(=O)N[C@@H]21` [biotin], the “binding indicated by FET signal waveform” value is “some biotin molecules have bonded with streptavidin” (pre-mixed 0.2 mM streptavidin with 4 mM biotin (1:20) in Tris buffer); “streptavidin and biotin bind together” (pre-mixed 1 mM streptavidin with 4 mM biotin in Tris buffer).

Source of the values: patent publication US20190187148A1, “BIOMOLECULAR INTERACTION DETECTION DEVICES AND METHODS” (The Regents of the University of California, priority 2013, published 2019).
